Results published in ChEMBL document CHEMBL5244246, “Recent advances in chemistry and bioactivity of marine cyanobacteria Moorea species” (Eur J Med Chem, 2020).
pIC50, pKi: −log10 of the molar value. ≈ marks a conversion by molar mass, not a printed value. Where “and” joins values, the source holds several entries; their conditions need not be identical. Equal values may be shown once.

Key:
[1] = system: MDA-MB-231; test: Cytotoxicity against human MDA-MB-231 cells assessed as cell growth inhibition; type: functional
[2] = system: HT-29; test: Cytotoxicity against human HT-29 cells assessed as cell growth inhibition; type: functional
[3] = system: Mycobacterium tuberculosis; test: Antimycobacterial activity against Mycobacterium tuberculosis H37Rv assessed as inhibition of bacterial growth at 12.5 ug/ml relative to control; type: functional
[4] = system: A549; test: Cytotoxicity against human A549 cells assessed as cell growth inhibition; type: functional, cell-based
[5] = system: MCF7; test: Cytotoxicity against human MCF7 cells assessed as inhibition of cell growth; type: functional, cell-based
[6] = system: Nitzschia amabilis; test: Growth inhibition of marine diatom assessed as inhibition rate at 10 ug/ml relative to control; type: functional
[7] = system: L1210; test: Cytotoxicity against mouse L1210 cells assessed as inhibition of cell growth at 10 ug/mL relative to control; type: functional; conditions: for inhibition (INH): dose 10 µg/ml
[8] = species: Homo sapiens; test: Inhibition of Voltage-gated sodium channel (unknown origin) at 3 ug/ml incubated for 18 hrs by cell-based bioassay relative to control; conditions: dose 3.0 µg/ml
[9] = system: N2a; test: Cytotoxicity against mouse Neuro2a cells assessed as inhibition of cell growth; type: functional, cell-based; conditions: Mus musculus, N2a
[10] = system: NCI-H460; test: Cytotoxicity against human NCI-H460 cells; type: functional, cell-based
[11] = system: L1210; test: Cytotoxicity against mouse L1210 cells assessed as inhibition of cell growth; type: functional, cell-based
[12] = system: HeLa; test: Cytotoxicity against human HeLa cells assessed as inhibition of cell growth incubated for 48 hrs by WST-8 colorimetric assay; type: functional, cell-based
[13] = Toxicity in brine shrimp assessed as lethal dose; conditions: artemia salina; read-out: LD50 (the source's name)
[14] = molecular target: Protein kinase C delta type (Homo sapiens, UniProt Q05655); test: Inhibition of [3H]-PDBu binding to PKCdelta C1B domain (unknown origin) by competitive binding assay
Chain of Protein kinase C delta type (Q05655 whole entry, the tested form may be a part): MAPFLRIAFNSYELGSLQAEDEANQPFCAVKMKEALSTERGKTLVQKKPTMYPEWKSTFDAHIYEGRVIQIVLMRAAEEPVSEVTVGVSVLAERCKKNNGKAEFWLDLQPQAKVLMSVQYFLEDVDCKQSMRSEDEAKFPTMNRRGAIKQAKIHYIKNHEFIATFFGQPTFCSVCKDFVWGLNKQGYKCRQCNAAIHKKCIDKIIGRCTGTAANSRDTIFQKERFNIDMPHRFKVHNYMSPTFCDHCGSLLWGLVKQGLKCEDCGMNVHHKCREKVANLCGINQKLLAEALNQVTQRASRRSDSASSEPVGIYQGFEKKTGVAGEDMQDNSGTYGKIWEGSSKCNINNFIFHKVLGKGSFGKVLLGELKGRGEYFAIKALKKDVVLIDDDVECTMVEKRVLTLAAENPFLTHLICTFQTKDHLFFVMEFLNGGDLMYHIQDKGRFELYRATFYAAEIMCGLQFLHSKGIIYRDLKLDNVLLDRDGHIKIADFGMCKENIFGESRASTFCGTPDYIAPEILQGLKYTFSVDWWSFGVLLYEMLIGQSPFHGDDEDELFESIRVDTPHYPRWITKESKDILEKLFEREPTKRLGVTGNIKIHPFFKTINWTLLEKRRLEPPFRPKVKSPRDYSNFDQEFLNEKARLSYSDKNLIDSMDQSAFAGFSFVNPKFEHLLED

[15] = Toxicity in shrimp assessed as lethal dose; conditions: palaemon paucidens

## CCCCCCC[C@@H](C/C=C/CCC(=O)N(C)C/C(=C/Cl)C/C(=C\C(=O)N1CC(OC)=CC1=O)OC)OC
[1]
  GI50: 40 µM
[2]
  GI50: 40 µM
[3]
  inhibition at 12.5 µg/mL: 10%
[4]
  GI50: 40 µM

## CC(=O)n1c(=O)ccn([C@H]2C[C@H](O)[C@@H](CO)O2)c1=O
[5]
  IC50: 18.2 µg/mL (≈ 67.3 µM)

## CCCCCCC[C@@H](C/C=C/CCC(=O)N(C)C/C(=C/Cl)C/C(=C\C(=O)N1CC(O)CC1=O)OC)OC (some centres undefined)
[1]
  GI50: 40 µM
[2]
  GI50: 40 µM
[3]
  inhibition at 12.5 µg/mL: 10%
[4]
  GI50: 40 µM

## CO[C@@H](CC[C@H](C)[C@H]1O[C@@]23C[C@H](OC(=O)C[C@H]([C@@H](C)O)OC(=O)/C=C(\O2)[C@]2(CO2)CC3(C)C)[C@@H]1C)c1cc(O)ccc1Br
[6]
  inhibition at 10 µg/mL: 30%
[7]
  inhibition (INH): 10% and 25%

## C=C(CCNC(=O)CC/C=C/C[C@H](CCCCCCCC)OC)[C@@]12O[C@H]1[C@H](O[C@H]1OC[C@H](OC)[C@@H](O)[C@@H]1OC)C=C(C)C2=O
[8]
  inhibition: 28%
[9]
  pIC50: 5.40
[10]
  pIC50: 5.40

## CCCCCCCC[C@@H](C/C=C/CCC(=O)N(C)C/C(=C\Cl)C/C(=C\C(=O)N1CC(OC)=CC1=O)OC)OC
[11]
  pIC50: 5.54

## CO[C@@H](CC[C@H](C)[C@H]1O[C@@]23C[C@H](OC(=O)C[C@H]([C@@H](C)O)OC(=O)C[C@](O)(O2)[C@H](C)CC3(C)C)[C@@H]1C)c1cccc(O)c1 [DEBROMOAPLYSIATOXIN]
[6]
  inhibition at 10 µg/mL: 30%

## CCCCCCC[C@@H](C/C=C/CCC(=O)O)OC
[1]
  GI50: 40 µM
[2]
  GI50: 40 µM
[3]
  inhibition at 12.5 µg/mL: 65%
[4]
  GI50: 40 µM

## CC[C@@H](C)[C@H]1C(=O)N2CCC[C@H]2C(=O)O[C@H](C(C)(C)C)C[C@@H](C)C[C@H](O)[C@@H](C)C2=N[C@@H](/C=C(\C)C(=O)N[C@@H](Cc3ccc(OC)cc3)C(=O)N(C)[C@@H](C)C(=O)N1C)CS2
[12]
  pIC50: 6.72

## CO[C@@H](CC[C@H](C)[C@H]1O[C@@]23C[C@H](OC(=O)C[C@H]([C@@H](C)O)OC(=O)/C=C(\O2)[C@@](C)(O)CC3(C)C)[C@@H]1C)c1cccc(O)c1
[6]
  inhibition at 10 µg/mL: 30%

## COC(=O)C(CCCCCC(Cl)Cl)C(CCCC#CC=C(Cl)Cl)NC=O (centres undefined)
[13]
  LC50: 1.7 µg/mL (≈ 3.82 µM)

## C=C[C@@](C)(CCC=C(C)C)c1ccc2c3c(c[nH]c13)C[C@@H](CO)NC(=O)[C@@H](C(C)C)N2C
[14]
  pKi: 7.77
[11]
  pIC50: 4.69
[15]
  LD100: 7.5 mg/kg

## CC[C@@H](C)[C@H]1C(=O)N2CCC[C@H]2C(=O)O[C@H](C(C)(C)C)C[C@@H](C)C[C@H](O)[C@H](C)C2=N[C@@H](/C=C(\C)C(=O)N[C@@H](Cc3ccc(OCCCCCCCN=[N+]=[N-])cc3)C(=O)N(C)[C@@H](C)C(=O)N1C)CS2
[12]
  pIC50: 7.10

## CC[C@@H](C)[C@H]1C(=O)N2CCC[C@H]2C(=O)O[C@H](C(C)(C)C)C[C@@H](C)C[C@H](O)[C@H](C)C2=N[C@@H](/C=C(\C)C(=O)N[C@@H](Cc3ccc(OCCCCCCCn4cc(-c5ccccc5)nn4)cc3)C(=O)N(C)[C@@H](C)C(=O)N1C)CS2
[12]
  pIC50: 7.30

## CO[C@@H](CC[C@H](C)C1O[C@@]2(C=C[C@@H]1C)[C@H](C(=O)O[C@@H]1CC(=O)O[C@@H]1C)C(=O)[C@H](C)CC2(C)C)c1cccc(O)c1 (some centres undefined)
[6]
  inhibition at 10 µg/mL: 30%

## O=c1ccn([C@H]2C[C@H](O)[C@@H](CO)O2)c(=O)n1CCc1ccccc1
[5]
  IC50: 18.2 µg/mL (≈ 54.8 µM)

## CCCCCCCC[C@@H](C/C=C/CCC(=O)NC/C(=C/Cl)[C@]12O[C@H]1[C@H](OC(C)=O)CCC2=O)OC
[8]
  inhibition: 28%
[9]
  pIC50: 5.40
[10]
  pIC50: 5.40

## CO[C@@H](CC[C@H](C)[C@H]1O[C@]23C[C@H](OC(=O)C[C@H]([C@@H](C)O)OC(=O)C(O)C(=C(C)CC2(C)C)O3)[C@@H]1C)c1cc(O)ccc1Br (some centres undefined)
[6]
  inhibition at 10 µg/mL: 30%
[7]; Mus musculus, L1210, dose 10 µg/ml
  inhibition at 10 µg/mL: 10%
[7]
  inhibition (INH): 20%

## CO[C@@H](CC[C@H](C)[C@@H]1CC=C[C@]2(O1)[C@H](C(=O)O[C@@H]1CC(=O)O[C@@H]1C)C(=O)[C@H](C)CC2(C)C)c1cc(O)ccc1Br
[6]
  inhibition at 10 µg/mL: 30%

## CCCCCCCC[C@@H](C/C=C/CCC(=O)N(C)C/C(=C\Cl)C/C(=C\C(=O)N1C[C@H](O)CC1=O)OC)OC
[11]
  pIC50: 5.54

## COC(=O)C(CCCCCC(Cl)Cl)C(CCCC#C/C=C/Cl)NC=O (centres undefined)
[13]
  LC50: 1.7 µg/mL (≈ 4.14 µM)

## CO[C@@H](CC[C@H](C)[C@H]1O[C@@]2(C[C@H](OC)[C@@H]1C)OC(CC(=O)O[C@@H]1CC(=O)O[C@@H]1C)=C(C)CC2(C)C)c1cc(O)ccc1Br
[6]
  inhibition at 10 µg/mL: 30%

## COC(=O)C(CCC#CC=C(Cl)Cl)C(CCCC#CCC(Cl)Cl)NC=O (centres undefined)
[13]
  LC50: 1.7 µg/mL (≈ 3.85 µM)

## C=C[C@@](C)(CCC=C(C)C)c1ccc2c3c1NC(=O)[C@@]3(O)C[C@@H](CO)NC(=O)[C@@H](C(C)C)N2
[14]
  pKi: 6.03
[11]
  pIC50: 3.49
[15]
  LD33: 25 mg/kg
